Results reported in patent US20230053540A1, “TREATMENT OF LIVER INJURY” (Massachusetts Institute of Technology, priority 2019, published 2023).

Test system: hepatocytes
Assay: Seq-Well scRNA-Seq of hepatocytes after APAP overdose (signature scores, DEG vs untreated)
Type: in vivo, mouse
[1] = hepatocytes, cluster A48 (APAP) vs other treatment clusters
[2] = time point A6 vs untreated (UT)

CC(=O)Nc1ccc(O)cc1 [APAP, acetaminophen]
Rdh7 avg_logFC [1]: 0.4684 | Reep6 avg_logFC [1]: 0.6233 | Retsat avg_logFC [1]: 0.7096 | Rgs16 avg_logFC [1]: 0.4545 | Rpl38 avg_logFC [1]: 0.3322 | Scand1 avg_logFC [1]: 0.2707 | Serpina3m avg_logFC [1]: 0.4034 | Serpina1d avg_logFC [1]: 0.3053 | Serping1 avg_logFC [1]: 0.5777 | Slc25a10 avg_logFC [1]: 0.4313 | Slc25a20 avg_logFC [1]: 0.3875 | Slc25a47 avg_logFC [1]: 0.6175 | Slc27a5 avg_logFC [1]: 0.4062 | Slc37a4 avg_logFC [1]: 0.4461 | Slco1a4 avg_logFC [1]: 0.5091 | Snord118 avg_logFC [1]: 0.4771 | St3gal5 avg_logFC [1]: 0.5549 | Sult1a1 avg_logFC [1]: 0.4827 | Syvn1 avg_logFC [1]: 0.3041 | Tcea3 avg_logFC [1]: 0.3938 | Tef avg_logFC [1]: 0.3394 | Tmbim4 avg_logFC [1]: 0.3693 | Tmbim6 avg_logFC [1]: 0.3713 | Ttc36 avg_logFC [1]: 0.5638 | Ttpa avg_logFC [1]: 0.4431 | Ttr avg_logFC [1]: 0.4225 | Ugt2b5 avg_logFC [1]: 0.4388 | Vnn3 avg_logFC [1]: 0.3008 | Vtn avg_logFC [1]: 0.5228 | Yipf3 avg_logFC [1]: 0.2785 | avg_logFC 15-Sep [2]: −0.4092 | avg_logFC 0610007P14Rik [2]: −0.257 | avg_logFC 0610011F06Rik [2]: −0.3037 | avg_logFC 1110008F13Rik [2]: −0.3751 | avg_logFC 1110058L19Rik [2]: −0.2581 | avg_logFC 1810022K09Rik [2]: −0.3001 | avg_logFC 2010107E04Rik [2]: −0.3182 | avg_logFC 3110043021Rik [2]: 0.2694 | avg_logFC AA474408 [2]: 0.3471 | avg_logFC AW112010 [2]: −0.2981 | avg_logFC Aadat [2]: −0.3186 | avg_logFC Abcc2 [2]: 0.2897 | avg_logFC Abcd3 [2]: −0.2718 | avg_logFC Abhd14b [2]: −0.3937 | avg_logFC Acads [2]: −0.3242 | avg_logFC Acbd5 [2]: −0.3952 | avg_logFC Acot13 [2]: −0.2886 | avg_logFC Actn4 [2]: 0.3124 | avg_logFC Adtrp [2]: −0.3664 | avg_logFC Agpat2 [2]: −0.2982 | avg_logFC Ak2 [2]: −0.3451 | avg_logFC Akap11 [2]: 0.3464 | avg_logFC Akr1a1 [2]: −0.3269 | avg_logFC Akr1e1 [2]: −0.2582 | avg_logFC Amy1 [2]: −0.283 | avg_logFC Anapc13 [2]: −0.3642 | avg_logFC Ankrd11 [2]: 0.4156 | avg_logFC Anp32a [2]: −0.317 | avg_logFC Anxa5 [2]: 0.3654 | avg_logFC Aox3 [2]: −0.3333 | avg_logFC Apc [2]: 0.279 | avg_logFC Apcs [2]: 0.2989 | avg_logFC Apom [2]: −0.3024 | avg_logFC Aqp9 [2]: −0.3109 | avg_logFC Arl6ip1 [2]: −0.3649 | avg_logFC Atf4 [2]: 0.3411 | avg_logFC Atf6 [2]: 0.3778 | avg_logFC Atp1b1 [2]: 0.3702 | avg_logFC Atp2b1 [2]: 0.3321 | avg_logFC Atp5c1 [2]: −0.3476 | avg_logFC Atp5g3 [2]: −0.3002 | avg_logFC Atp5o [2]: −0.3316 | avg_logFC BC005537 [2]: 0.3543 | avg_logFC Baat [2]: −0.3086 | avg_logFC Baz1a [2]: 0.2596 | avg_logFC Bckdha [2]: −0.35 | avg_logFC Bet1 [2]: −0.2966 | avg_logFC Bhmt2 [2]: −0.3114 | avg_logFC Bnip3 [2]: −0.3362 | avg_logFC Bola3 [2]: −0.3689 | avg_logFC Bptf [2]: 0.3245 | avg_logFC Bsg [2]: −0.3152 | avg_logFC Bst2 [2]: −0.3156 | avg_logFC C8b [2]: −0.3159 | avg_logFC C130074G19Rik [2]: −0.3563 | avg_logFC Car5a [2]: −0.3088 | avg_logFC Cars [2]: 0.3158 | avg_logFC Cast [2]: 0.4009 | avg_logFC Cebpb [2]: −0.3617 | avg_logFC Cela1 [2]: −0.2723 | avg_logFC Cep85l [2]: 0.2779 | avg_logFC Ces1f [2]: −0.3126 | avg_logFC Cfhr1 [2]: −0.3253 | avg_logFC Chmp4b [2]: 0.3002 | avg_logFC Chuk [2]: 0.3724 | avg_logFC Cideb [2]: −0.3684 | avg_logFC Cisd1 [2]: −0.3727 | avg_logFC Cldn2 [2]: −0.2511 | avg_logFC Cldn3 [2]: −0.3145 | avg_logFC Cnpy2 [2]: −0.3729 | avg_logFC Coq9 [2]: −0.3479 | avg_logFC Coro1c [2]: 0.3067 | avg_logFC Cox6b1 [2]: −0.362 | avg_logFC Cox8a [2]: −0.3993 | avg_logFC Cpb2 [2]: −0.3215 | avg_logFC Cpt1a [2]: 0.2611 | avg_logFC Csde1 [2]: 0.3156 | avg_logFC Csrp3 [2]: −0.294 | avg_logFC Ctsc [2]: 0.361 | avg_logFC Cxcl1 [2]: 0.3701 | avg_logFC Cybb [2]: 0.3778 | avg_logFC Cyp4f14 [2]: −0.2959 | avg_logFC Cyp4f15 [2]: −0.2998 | avg_logFC Cyp27a1 [2]: −0.3735 | avg_logFC D10Jhu81e [2]: −0.3957 | avg_logFC D17Wsu92e [2]: 0.2525 | avg_logFC Ddah1 [2]: −0.312 | avg_logFC Ddx3y [2]: 0.3395 | avg_logFC Derl2 [2]: −0.3317 | avg_logFC Dgat2 [2]: −0.3433 | avg_logFC Dhdh [2]: −0.3348 | avg_logFC Dhrs4 [2]: −0.3321 | avg_logFC Dhx9 [2]: 0.3504 | avg_logFC Dnaja2 [2]: 0.3723 | avg_logFC Dnajc5 [2]: 0.3265 | avg_logFC Dnajc19 [2]: −0.316 | avg_logFC Dync1h1 [2]: 0.3796 | avg_logFC Dync1li1 [2]: 0.2624 | avg_logFC Ebp [2]: −0.3553 | avg_logFC Echs1 [2]: −0.3316 | avg_logFC Edf1 [2]: −0.3817 | avg_logFC Eef1a1 [2]: 0.2826 | avg_logFC Eif3c [2]: 0.302 | avg_logFC Eif4b [2]: 0.3682 | avg_logFC Eprs [2]: 0.3701 | avg_logFC Erbb2ip [2]: 0.3332 | avg_logFC Esd [2]: −0.2808 | avg_logFC Ethe1 [2]: −0.3334 | avg_logFC Etnk1 [2]: 0.316 | avg_logFC F10 [2]: −0.2719 | avg_logFC Fah [2]: −0.2593 | avg_logFC Fam25c [2]: −0.2977 | avg_logFC Fam214a [2]: −0.2658 | avg_logFC Fbxo21 [2]: −0.2631 | avg_logFC Fcna [2]: 0.3774 | avg_logFC Fdps [2]: −0.2663 | avg_logFC Fkbp4 [2]: −0.3534 | avg_logFC Fus [2]: 0.3393 | avg_logFC Gadd45g [2]: −0.3554 | avg_logFC Gadd45gip1 [2]: −0.3041 | avg_logFC Gcdh [2]: −0.3003 | avg_logFC Ghr [2]: −0.3648 | avg_logFC Gjb1 [2]: −0.3166 | avg_logFC Glyctk [2]: −0.2977 | avg_logFC Gm2788 [2]: −0.2831 | avg_logFC Gm4951 [2]: −0.3221 | avg_logFC Gm10800 [2]: 0.5626 | avg_logFC Gm24245 [2]: 0.5465 | avg_logFC Grhpr [2]: −0.3531 | avg_logFC Gsr [2]: 0.4128 | avg_logFC Gstm4 [2]: −0.3809 | avg_logFC Gyk [2]: 0.3684 | avg_logFC Hibch [2]: −0.3271 | avg_logFC Hipk3 [2]: 0.3394 | avg_logFC Hist1h1c [2]: −0.3009 | avg_logFC Hmgcs1 [2]: −0.3491 | avg_logFC Hsd17b10 [2]: −0.3772 | avg_logFC Hsp90b1 [2]: −0.2615 | avg_logFC Hspa5 [2]: 0.2682 | avg_logFC Huwe1 [2]: 0.3879 | avg_logFC Ifrd1 [2]: 0.4904 | avg_logFC Il6ra [2]: 0.3044 | avg_logFC Ipo5 [2]: 0.2687 | avg_logFC Ipo7 [2]: 0.3246 | avg_logFC Ivns1abp [2]: 0.3566 | avg_logFC Jhdm1d [2]: 0.3041 | avg_logFC Kif21a [2]: 0.4042 | avg_logFC Lap3 [2]: −0.3644 | avg_logFC Larp4b [2]: 0.3421 | avg_logFC Lcp1 [2]: 0.484 | avg_logFC Lrrfip2 [2]: 0.3731 | avg_logFC Lsmd1 [2]: −0.3131 | avg_logFC Macf1 [2]: 0.4042 | avg_logFC Mak16 [2]: 0.3171 | avg_logFC Map3k5 [2]: 0.3347 | avg_logFC Mbl2 [2]: −0.3465 | avg_logFC Mcee [2]: −0.3199 | avg_logFC Mdh1 [2]: −0.3077 | avg_logFC Mdm2 [2]: 0.3283 | avg_logFC Metap2 [2]: 0.3686 | avg_logFC Mettl7a1 [2]: −0.3221 | avg_logFC Mien1 [2]: −0.3704 | avg_logFC Mki67ip [2]: 0.3184 | avg_logFC Mocs2 [2]: −0.3467 | avg_logFC Mpc1 [2]: −0.2802 | avg_logFC Mrc1 [2]: 0.3404 | avg_logFC Mrp133 [2]: −0.2654 | avg_logFC Mrpl11 [2]: −0.2685 | avg_logFC Mrpl12 [2]: −0.3082 | avg_logFC Mrpl15 [2]: −0.2912 | avg_logFC Mrpl34 [2]: −0.2838 | avg_logFC Mrpl41 [2]: −0.2674
